From ChEMBL document CHEMBL6153133, “Discovery of Diphenyl Ether Derivatives as Novel BKCa Channel Activators: Structure-Activity Relationship, Cryo-EM Complex Structures, and In Vivo Animal Studies” (J Med Chem, 2025)
Blank lines part the entries; values can stand above or below the compound they belong to.

What was measured:
[1] = target: Calcium-activated potassium channel subunit alpha-1 (Homo sapiens, UniProt Q12791, G803D/N806K); assay: Activation of hyperactive human BKca channel G803D/N806K mutant transfected in human AD-293 cells incubated for 15 mins by Flexstation3 multimode microplate reader analysis; format: cell-based
[2] = Activation of rat BKca channel extracted from Xenopus laevis Oocytes by patch-clamp electrophysiology recordings; format: cell-based; conditions: Oocyte
[3] = Metabolic stability in rat liver microsomes assessed as parent compound remaining at 1 uM preincubated for 5 mins followed by NADPH addition and measured after 30 mins by LC-MS/MS analysis; format: ADME, Microsome; conditions: read-out: Stability
[4] = Metabolic stability in human liver microsomes assessed as parent compound remaining at 1 uM preincubated for 5 mins followed by NADPH addition and measured after 30 mins by LC-MS/MS analysis; format: ADME, Microsome; conditions: read-out: Stability
[5] = Metabolic stability in rat liver microsomes assessed as parent compound remaining at 1 uM preincubated for 15 mins followed by UDPGA addition and measured after 60 mins by LC-MS/MS analysis; format: ADME, Microsome; conditions: time 75 min, read-out: Stability
[6] = Metabolic stability in human liver microsomes assessed as parent compound remaining at 1 uM preincubated for 15 mins followed by UDPGA addition and measured after 60 mins by LC-MS/MS analysis; format: ADME, Microsome; conditions: time 75 min, read-out: Stability
[7] = Permeability of compound at pH 7.4 measured after 4 hrs by GIT-PAMPA assay; format: ADME; conditions: read-out: permeability
[8] = Drug metabolism in male Sprague-Dawley rat assessed as glucuronide conjugated metabolite formation at 10 mg/kg, po measured after approximately 4.2 hrs by LC-MS/MS analysis; format: ADME, organism-based; conditions: in vivo
[9] = target: T1, Calcium-activated potassium channel subunit alpha-1 (Homo sapiens, UniProt Q12791); assay: Activation of human BK ca channel expressed in CHO cells by whole cell patch clamp method; format: cell-based
[10] = system: Calcium-activated potassium channel subunit alpha-1 (Homo sapiens), Q12791 [UNDEFINED MUTATION]; assay: Activation of hyperactive human BKca channel G803D/N806K mutant transfected in human AD-293 cells assessed as maximum relative fluorescence value at 5 uM preincubated for 15 mins followed by Tl+ stimulus buffer addition and measured after 80 sec by Flexstation3 multimode microplate reader analysis relative to control; format: cell-based; conditions: time 980.0 sec
[11] = target: T1, Calcium-activated potassium channel subunit alpha-1; assay: Activation of BKca channel (unknown origin) by cell-based fluorescence assay
[12] = target: T1, Calcium-activated potassium channel subunit alpha-1; assay: Activation of BKca channel (unknown origin) by cell based method
Urinary bladder = assay: Induction of relaxation in Sprague-Dawley rat urinary bladder strips assessed as reduction in contraction; format: functional, tissue-based
[13] = target: T1, Calcium-activated potassium channel subunit alpha-1; assay: Activation of BKca channel (unknown origin) by patch-clamp method

T1 sequence (Q12791 whole entry): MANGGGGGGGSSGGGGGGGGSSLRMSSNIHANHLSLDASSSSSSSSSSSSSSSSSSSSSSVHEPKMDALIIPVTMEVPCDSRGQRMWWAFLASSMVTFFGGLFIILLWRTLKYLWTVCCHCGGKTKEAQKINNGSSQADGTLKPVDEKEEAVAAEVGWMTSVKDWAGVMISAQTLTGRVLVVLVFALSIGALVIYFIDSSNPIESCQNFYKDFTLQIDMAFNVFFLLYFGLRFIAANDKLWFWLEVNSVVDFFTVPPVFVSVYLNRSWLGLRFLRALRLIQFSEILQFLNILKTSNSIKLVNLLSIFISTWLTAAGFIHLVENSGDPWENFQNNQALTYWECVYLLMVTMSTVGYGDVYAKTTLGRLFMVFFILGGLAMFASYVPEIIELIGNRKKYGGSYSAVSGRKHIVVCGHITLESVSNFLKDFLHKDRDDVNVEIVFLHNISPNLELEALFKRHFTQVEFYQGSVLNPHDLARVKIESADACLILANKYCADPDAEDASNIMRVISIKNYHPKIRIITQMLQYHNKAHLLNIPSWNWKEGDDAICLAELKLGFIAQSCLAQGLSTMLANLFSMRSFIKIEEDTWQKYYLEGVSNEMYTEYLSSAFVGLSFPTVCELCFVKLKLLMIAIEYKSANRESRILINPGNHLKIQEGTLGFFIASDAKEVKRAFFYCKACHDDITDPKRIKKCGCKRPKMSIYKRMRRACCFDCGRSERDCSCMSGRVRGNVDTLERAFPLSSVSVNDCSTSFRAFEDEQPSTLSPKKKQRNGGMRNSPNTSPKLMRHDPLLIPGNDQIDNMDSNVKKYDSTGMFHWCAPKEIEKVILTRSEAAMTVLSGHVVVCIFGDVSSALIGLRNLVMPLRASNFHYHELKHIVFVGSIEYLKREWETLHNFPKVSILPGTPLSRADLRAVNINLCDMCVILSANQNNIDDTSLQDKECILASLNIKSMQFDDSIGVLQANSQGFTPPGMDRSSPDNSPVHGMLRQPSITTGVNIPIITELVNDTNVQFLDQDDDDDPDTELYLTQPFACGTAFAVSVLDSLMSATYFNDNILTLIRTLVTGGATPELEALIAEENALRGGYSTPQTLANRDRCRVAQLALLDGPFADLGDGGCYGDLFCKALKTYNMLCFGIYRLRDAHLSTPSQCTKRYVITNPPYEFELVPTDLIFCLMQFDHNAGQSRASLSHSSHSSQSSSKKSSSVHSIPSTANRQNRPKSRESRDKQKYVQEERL
Calcium-activated potassium channel subunit alpha-1 (Homo sapiens, UniProt Q12791, G803D/N806K), sequence (Q12791 whole entry, looked up, stated change not applied): as the sequence (Q12791 whole entry) above
Calcium-activated potassium channel subunit alpha-1 (Homo sapiens), Q12791 [UNDEFINED MUTATION], sequence (Q12791 whole entry, looked up, stated change not applied): as the sequence (Q12791 whole entry) above

EC50 [1]: 0.12 µM
EC50 [2]: 0.28 µM
remaining at 0.5 h, 1 µM [3]: 34.6%
remaining at 0.5 h, 1 µM [4]: 97%
remaining at 1 h, 1 µM [5]: 5.8%
remaining at 1 h, 1 µM [6]: 4.8%
Papp at 4 h [7]: 41.1 ×10⁻⁶ cm/s
Drug metabolism [8]: metabolite_detected
Compound: Nc1ccc(Oc2c(F)c(F)c(C(F)(F)F)c(F)c2F)c(O)c1

EC50 [9]: 111 µM
Compound: CCc1oc2ccccc2c1C(=O)c1cc(Br)c(O)c(Br)c1 [BENZBROMARONE]

Activity [10]: 34.9%
EC50 [11]: 5.4 µM
EC50 [12]: 5.4 µM
EC50 (Urinary bladder): 2.5 µM
Compound: O=C(O)c1ccc(Cl)c2c1[nH]c1c3ccc(C(F)(F)F)cc3oc12

EC50 [13]: 10 µM
Compound: O=c1[nH]c2cc(C(F)(F)F)ccc2n1-c1cc(C(F)(F)F)ccc1O
